These results are taken from PubChem BioAssay (NCI).

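Grown in 96-well plates, cells were treated for 48 hours with each compound at five concentrations. Insufficient inhibition: endpoint recorded as highest concentration tested. GI50: concentration for 50% inhibition of growth. TGI is the concentration that stops growth completely.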

Among the test systems are A549 NSCLC; CCRF-CEM leukemia; HS 578T breast; LOX IMVI melanoma; MDA-MB-231 breast; NCI-H226 lung; NCI/ADR-RES ovarian; SF-295 CNS; SK-MEL-5 melanoma; UACC-62 melanoma.
Holding throughout (test): NCI-60 cell line screen, 48 h

Regarding `ClCc1cccc(Cn2cnc3c(NC45CC6CC(CC(C6)C4)C5)ncnc32)c1`, the GI50 in the test on A549 NSCLC was 21.7 µM; in the test on CCRF-CEM leukemia, 16 µM; in the test with HS 578T breast it was 23.4 µM; in the test on LOX IMVI melanoma it was 15.7 µM; in the test on MDA-MB-231 breast, 15.5 µM; in the test with NCI-H226 lung, 22.9 µM. The GI50 in the test with NCI/ADR-RES ovarian is 16.2 µM; with SF-295 CNS it was 15.9 µM; in the test on SK-MEL-5 melanoma, 16.4 µM; with UACC-62 melanoma, 16.3 µM. Also, the TGI with A549 NSCLC is above 60.1 µM; in the test on CCRF-CEM leukemia, above 69.1 µM; with HS 578T breast, 68.2 µM; in the test with LOX IMVI melanoma it was 31.7 µM; with MDA-MB-231 breast it was 39.3 µM; in the test on NCI-H226 lung it was 69.2 µM. Besides, the TGI was 41.9 µM in the test on NCI/ADR-RES ovarian, 33.3 µM in the test with SF-295 CNS, 31.7 µM in the test on SK-MEL-5 melanoma and 36.5 µM in the test with UACC-62 melanoma.
Consider `CCOC(=O)Nc1nc2ccc(Cn3cccc3)cc2[nH]1`, for which the TGI was above 100 µM in the test on A549 NSCLC; 25.1 µM in the test on CCRF-CEM leukemia; above 100 µM with HS 578T breast; above 100 µM with LOX IMVI melanoma; above 27.2 µM with MDA-MB-231 breast; 32.1 µM in the test on NCI-H226 lung. Besides, the TGI was 21.2 µM in the test with NCI/ADR-RES ovarian, 20 µM with SF-295 CNS, above 38.6 µM in the test with SK-MEL-5 melanoma and above 100 µM in the test on UACC-62 melanoma.
As for `Nc1ccc(N(S(=O)(=O)c2ccccc2)S(=O)(=O)c2ccccc2)c(Cl)c1`, the TGI in the test on A549 NSCLC, in the test on HS 578T breast, in the test on LOX IMVI melanoma, in the test on MDA-MB-231 breast, in the test on NCI-H226 lung and with NCI/ADR-RES ovarian was above 100 µM each time. For the same compound, the values for the TGI in the test with SF-295 CNS, in the test on SK-MEL-5 melanoma and in the test on UACC-62 melanoma were above 100 µM, 50.4 µM and above 100 µM, respectively.
For `CSc1ccc(C2=NN(C(=O)c3ccc(F)cc3)C(c3ccc(F)cc3)C2)cc1` (stereo not drawn), the GI50 in the test on A549 NSCLC was 11.7 µM; in the test on CCRF-CEM leukemia, 2.24 µM; in the test on HS 578T breast, 34.2 µM; with LOX IMVI melanoma, 3.62 µM; in the test on MDA-MB-231 breast, 14 µM; in the test on NCI-H226 lung, 13.4 µM. Besides, the GI50 with NCI/ADR-RES ovarian is 16 µM; in the test on SF-295 CNS, 17.9 µM; in the test with SK-MEL-5 melanoma it was 18.5 µM; with UACC-62 melanoma, 11.7 µM. Also, the TGI in the test with A549 NSCLC turned out to be 26.9 µM; in the test with CCRF-CEM leukemia, 6.52 µM; with HS 578T breast, 64.2 µM; with LOX IMVI melanoma, 12.3 µM; in the test with MDA-MB-231 breast, 32.3 µM; in the test on NCI-H226 lung it was 34.3 µM. Besides, the TGI is 33 µM in the test with NCI/ADR-RES ovarian, 33.7 µM with SF-295 CNS, 33.3 µM with SK-MEL-5 melanoma and 24.5 µM with UACC-62 melanoma.
As to `Cc1cc(I)cc(CN(C)CCCN2CCSCC2)c1O`, the GI50 was 30.7 µM in the test with A549 NSCLC; 19.1 µM with HS 578T breast; 17.2 µM in the test with LOX IMVI melanoma; 27.8 µM in the test with MDA-MB-231 breast; 39.5 µM with NCI-H226 lung; 24.8 µM in the test on NCI/ADR-RES ovarian. Also, the GI50 was 16.4 µM in the test with SK-MEL-5 melanoma and 32 µM with UACC-62 melanoma. The TGI with A549 NSCLC is above 100 µM; in the test with HS 578T breast it was 48.3 µM; with LOX IMVI melanoma it was 33.5 µM; in the test on MDA-MB-231 breast, 92.3 µM; with NCI-H226 lung, above 100 µM; with NCI/ADR-RES ovarian, 76.5 µM. In addition, the TGI was 31 µM in the test with SK-MEL-5 melanoma and above 100 µM with UACC-62 melanoma.
`COc1cc(C(=O)/C(C)=C/c2c[nH]c3ccccc23)cc(OC)c1OC`: the GI50 with A549 NSCLC was 0.0041 µM; in the test on CCRF-CEM leukemia, 0.00511 µM; with HS 578T breast, 0.00478 µM; in the test with LOX IMVI melanoma, 0.00468 µM; with MDA-MB-231 breast, 0.0039 µM; with NCI/ADR-RES ovarian, 0.00322 µM. The GI50 is 0.00298 µM with SF-295 CNS and 0.00428 µM in the test with SK-MEL-5 melanoma. In addition, the TGI in the test with A549 NSCLC is above 100 µM; in the test on CCRF-CEM leukemia it was above 100 µM; in the test with HS 578T breast it was 48 µM; in the test with LOX IMVI melanoma, 11.5 µM; with MDA-MB-231 breast it was above 100 µM; with NCI-H226 lung it was above 100 µM. In addition, the TGI with NCI/ADR-RES ovarian is above 100 µM; with SF-295 CNS, 1.61 µM; in the test with SK-MEL-5 melanoma, 0.0205 µM; in the test on UACC-62 melanoma, 14.1 µM.
On to `O=C(O[C@H]1CN[C@H](C#Cc2cc3ncnc(Nc4ccc5c(ccn5Cc5cc(F)ccc5F)c4)c3s2)C1)N1CCOCC1`, for which the GI50 in the test on A549 NSCLC is 3.07 µM; in the test on CCRF-CEM leukemia, 5.59 µM; in the test with HS 578T breast it was 0.488 µM; in the test on LOX IMVI melanoma it was 3.5 µM; in the test on MDA-MB-231 breast it was 1.97 µM; in the test on NCI-H226 lung it was 3.2 µM. For the same compound, the GI50 in the test with NCI/ADR-RES ovarian is 3.7 µM; in the test on SF-295 CNS, 6.02 µM; with SK-MEL-5 melanoma it was 2.95 µM; with UACC-62 melanoma, 4.1 µM. The TGI was 10.1 µM in the test with A549 NSCLC; 24.9 µM in the test with CCRF-CEM leukemia; above 25 µM with HS 578T breast; 9.28 µM in the test with LOX IMVI melanoma; 9.81 µM in the test with MDA-MB-231 breast; 9.64 µM with NCI-H226 lung. Besides, the TGI with NCI/ADR-RES ovarian is above 23.2 µM; in the test on SF-295 CNS it was 17.7 µM; in the test on SK-MEL-5 melanoma, 6.13 µM; with UACC-62 melanoma it was 9.3 µM.
On to `COC(=O)c1cc2c(cc1Cl)SC(N(N(C)C)S(=O)(=O)c1ccc(Br)s1)=NS2(=O)=O`, for which the GI50 with A549 NSCLC is 32 µM; with CCRF-CEM leukemia, 23.1 µM; in the test with HS 578T breast, 26.2 µM; in the test with LOX IMVI melanoma, 17.5 µM; with MDA-MB-231 breast, 20.3 µM; in the test on NCI-H226 lung, 52.1 µM. The GI50 in the test on NCI/ADR-RES ovarian was 23.7 µM; in the test on SF-295 CNS it was 33.2 µM; in the test with SK-MEL-5 melanoma it was 15.8 µM; in the test on UACC-62 melanoma it was 21.4 µM. Besides, the TGI is above 100 µM in the test on A549 NSCLC; 72.5 µM in the test with CCRF-CEM leukemia; 63.5 µM with HS 578T breast; 31.8 µM in the test on LOX IMVI melanoma; 43.9 µM in the test with MDA-MB-231 breast; above 100 µM with NCI-H226 lung. For the same compound, the TGI with NCI/ADR-RES ovarian is 59.9 µM; in the test on SF-295 CNS, 97.3 µM; with SK-MEL-5 melanoma, 29.4 µM; with UACC-62 melanoma it was 50.6 µM.
